Results: patent US12011447B2, “Pharmaceutical composition for treating thyroid cancer comprising tyrosine kinase activity inhibitor as active ingredient” (Kyungpook National University Industry-Academic Cooperation …, priority 2017, dated 2024)

How the values were obtained:
[1] = system: anaplastic thyroid cancer xenograft (8505C-PNIS-PCMV); test: Tumor growth inhibition in xenograft mice (tumor size, R-luc BLI); format: in vivo, Balb/c nude mice; settings: single agent administration
Method: Female Balb/c nude mice, 5.5-week old with an average weight of 18.9±0.37 g (mean±standard deviation [SD]), were purchased (Hamamatsu, Shizuoka, Japan). The mice were acclimated under specific pathogen-free conditions for one week before starting the experiment, and were maintained at a temperature of 20 to 25° C. and a relative humidity of 40 to 70%. To establish anaplastic thyroid cancer xenograft mouse models, 8505C-PNIS-PCMV s (5×10^6) were mixed with Matrigel (Corning) at a ratio of 1:1 and injected subcutaneously into the right flank region of each mouse.
In addition, in order to evaluate the effect of TKI-0266 administration on the treatment of thyroid cancer, mice for use in the experiment were divided into four groups (n=5): the vehicle group; the ^131I-administered group (injected intraperitoneally with 1 mCi Na-^131I on day 2 of the experiment; the TKI-0266-administered group (injected intraperitoneally with 50 mg/kg of TKI-0266 for 5 days); and the group co-administered with ^131I and TKI-0266 (injected intraperitoneally with 50 mg/kg of TKI-0266 for 5 days, and injected intravenously with 1 mCi Na-^131I on day 2; n=5). To measure the degree of tumor growth, h-coelenterazine (15 μg/ml) was administered to the mice by intravenous injection, and then the R-luc activity was monitored by BLI every 5 days.

8505C cells = test: In vitro 125I uptake assay; format: cell-based, human; settings: anaplastic thyroid cancer cells
Method: 8505C cells (1.25×10^5) were seeded and incubated in a 24-well plate for 24 hours, and then treated with TKI-0266 and further incubated for 24 hours. Thereafter, the medium was removed, and the cells were washed with bHBSS (Hank's balanced salt solution containing 0.5% BSA). The cells were incubated with 500 μl of bHBSS, 3.7 kBq carrier-free ^125I (Perkin-Elmer), and 10 μmol/L sodium iodide (specific activity of 740 MBq/mmol) at 37° C. for 30 minutes. Thereafter, the cells were washed twice with cold bHBSS and lysed by adding 500 μL of 2% SDS solution thereto. Radioactivity was measured using a Cobra II gamma-counter (Canberra Packard, Canada). The ^125I uptake values were normalized by comparing the amount of total protein determined by BCA protein assay kit.

SMILES	tumor size on days 6 and 11 [1]	iodine uptake on treatment with NIS inhibitor (8505C cells)
[131I-].[Na+] [^131I, Na-^131I, reference compound]	continuous increase	
[K+].[O-][Cl+3]([O-])([O-])[O-] [KCIO4, reference compound]		completely blocked
